Holding throughout (test): relative viability (nuclei count vs DMSO), 5 days (fraction); higher = more cells survive
Compound in the assay “TGX 221 + Luminespib”: CC1=CN2C(=O)C=C(N=C2C(=C1)C(C)NC3=CC=CC=C3)N4CCOCC4 [TGX 221] + CCNC(=O)c1noc(-c2cc(C(C)C)c(O)cc2O)c1-c1ccc(CN2CCOCC2)cc1 [Luminespib] (partner 0.01 µM)
The gist of the method:
(§1)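 Relative viability is defined as nuclei in treated wells over nuclei in vehicle wells. Duplicate plates were run and medians reported. Lung cancer cell lines in 1536-well plates were dosed by pin tool one day after seeding, with one drug or with a fixed anchor-drug dose plus five library-drug doses (not always all listed) in √10 steps, and nuclei were counted after 5 days.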

Compound in the assay “TGX 221 + Olaparib”: CC1=CN2C(=O)C=C(N=C2C(=C1)C(C)NC3=CC=CC=C3)N4CCOCC4 [TGX 221] + O=C(c1cc(Cc2n[nH]c(=O)c3ccccc23)ccc1F)N1CCN(C(=O)C2CC2)CC1 [Olaparib] (partner 8 µM)
A digest of the protocol: as §1

Compound in the assay “Ricolinostat + Lapatinib”: O=C(CCCCCCNC(=O)c1cnc(N(c2ccccc2)c2ccccc2)nc1)NO [Ricolinostat] + CS(=O)(=O)CCNCc1ccc(-c2ccc3ncnc(Nc4ccc(OCc5cccc(F)c5)c(Cl)c4)c3c2)o1 [Lapatinib] (partner 2 µM)
The gist of the method:
as §1

Compound in assay [1]: O=C(CCCCCCNC(=O)c1cnc(N(c2ccccc2)c2ccccc2)nc1)NO [Ricolinostat] + Nc1ncn([C@H]2C[C@H](O)[C@@H](CO)O2)c(=O)n1 [Decitabine] (partner 2 µM)
A digest of the protocol: as §1

For the cell line NCI-H322M, the relative viability with TGX 221 + Luminespib (first compound 0.08 µM) was determined as 0.735; with TGX 221 + Luminespib (first compound 0.253 µM) it was 0.802; with TGX 221 + Luminespib (first compound 0.8 µM) it was 0.776; with TGX 221 + Luminespib (first compound 2.53 µM), 0.812; in the assay with TGX 221 + Luminespib (first compound 8 µM) it was 0.644; with TGX 221 + Olaparib (first compound 0.08 µM), 0.699. For the same cell line, the relative viability in the assay with TGX 221 + Olaparib (first compound 0.253 µM) was 0.701; with TGX 221 + Olaparib (first compound 0.8 µM), 0.876; in the assay with TGX 221 + Olaparib (first compound 2.53 µM) it was 0.716; in the assay with TGX 221 + Olaparib (first compound 8 µM), 0.681; with Ricolinostat + Lapatinib (first compound 0.253 µM), 0.494; with Ricolinostat + Lapatinib (first compound 0.8 µM) it was 0.624. In addition, the relative viability in the assay with Ricolinostat + Lapatinib (first compound 2.53 µM) was 0.66; in assay [1] (first compound 0.08 µM), 0.616; in assay [1] (first compound 0.253 µM), 0.708; in assay [1] (first compound 0.8 µM), 0.721; in assay [1] (first compound 2.53 µM), 0.754.

These data come from the supplement of paper PMC10307832.
